# Experimental data: patent US10239832B2, “N-(1-hydroxy-3-(pyrrolidinyl)propan-2-yl)pyrrolidine-3-carboxamide derivatives as glucosylceramide synthase inhibitors” (BIOMARIN PHARMACEUTICAL INC., priority 2013, dated 2019)
# Biological target: T1, GCS (Canis lupus familiaris, UniProt A0A8I3MXG6)
# T1 construct: endogenous in cells; host or cells: MDCK (Madin-Darby canine kidney) cells, whole-cell lysate
# T1 sequence (A0A8I3MXG6 1-394): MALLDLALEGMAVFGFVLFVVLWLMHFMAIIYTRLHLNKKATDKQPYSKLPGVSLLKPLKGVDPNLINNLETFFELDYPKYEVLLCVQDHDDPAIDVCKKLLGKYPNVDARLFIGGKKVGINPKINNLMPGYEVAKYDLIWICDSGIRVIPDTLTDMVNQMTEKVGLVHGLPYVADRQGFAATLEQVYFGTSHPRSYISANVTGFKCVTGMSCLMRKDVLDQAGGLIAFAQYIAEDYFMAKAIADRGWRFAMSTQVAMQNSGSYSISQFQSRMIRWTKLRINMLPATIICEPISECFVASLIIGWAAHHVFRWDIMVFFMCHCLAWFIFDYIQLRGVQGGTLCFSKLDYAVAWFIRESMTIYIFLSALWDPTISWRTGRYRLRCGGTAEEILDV
# Assay: GCS enzymatic assay (MDCK cell lysate, NBD-ceramide to glucosylceramide, LC/MS)
# Format: biochemical, canine
# Conditions: Table 2; class symbols A, B, C; the table does not say which of the assays; read-out: Data Range (IC50 values)
# How it was run: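 IC50 or percent inhibition came from LC/MS/MS (ESI+, MRM) of NBD-ceramide and glucosylceramide, with tolbutamide as internal standard. The reaction used MDCK (canine) cell lysate as the enzyme source and was ended with acetonitrile. Mock wells received 0.1% DMSO.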
row,SMILES,IC50
1,"N#Cc1ccc(N2CC[C@@H](C(=O)N[C@H](CN3CCCC3)[C@H](O)c3ccc(OC4CC4)c(Cl)c3)C2)cc1 [Compound 152, (R)-N-((1R,2R)-1-(3-chloro-4-cyclopropoxyphenyl)-1-hydroxy-3-(pyrrolidin-1-yl)propan-2-yl)-1-(4-cyanophenyl)pyrrolidine-3-carboxamide]",0.1 to 1 µM
2,"O=C(N[C@H](CN1CCCC1)[C@H](O)c1ccc(OC2CC2)c(Cl)c1)[C@@H]1CCN(c2cc(Oc3ccccn3)ccc2Cl)C1 [Compound 118, (R)-N-((1R,2R)-1-(3-chloro-4-cyclopropoxyphenyl)-1-hydroxy-3-(pyrrolidin-1-yl)propan-2-yl)-1-(2-chloro-5-(pyridin-2-yloxy)phenyl)pyrrolidine-3-carboxamide]",0.001 to 0.03 µM
3,"O=C(N[C@H](CN1CCCC1)[C@H](O)c1ccc(OC2CC2)c(Cl)c1)[C@@H]1CCN(c2cccc(Oc3ccc(F)cc3)n2)C1 [Compound 115, (R)-N-((1R,2R)-1-(3-chloro-4-cyclopropoxyphenyl)-1-hydroxy-3-(pyrrolidin-1-yl)propan-2-yl)-1-(6-(4-fluorophenoxy)pyridin-2-yl)pyrrolidine-3-carboxamide]",0.001 to 0.03 µM
4,"O=C(N[C@H](CN1CCCC1)[C@H](O)c1ccc2c(c1)OCCO2)C1CCN(c2ccc(Cl)cc2Cl)C1 (stereo in doubt) [Compound 12, (R)-1-(2,4-dichlorophenyl)-N-((1R,2R)-1-(2,3-dihydrobenzo[b][1,4]dioxin-6-yl)-1-hydroxy-3-(pyrrolidin-1-yl)propan-2-yl)pyrrolidine-3-carboxamide]",0.001 to 0.03 µM
5,"O=C(N[C@H](CN1CCCC1)[C@H](O)c1ccc(OC2CC2)c(Cl)c1)[C@H]1CCN(c2ccc(Cl)cn2)C1 [Compound 57A, (S)-N-((1R,2R)-1-(3-chloro-4-cyclopropoxyphenyl)-1-hydroxy-3-(pyrrolidin-1-yl)propan-2-yl)-1-(5-chloropyridin-2-yl)pyrrolidine-3-carboxamide]",0.001 to 0.03 µM
6,"C=COc1ccc([C@@H](O)[C@@H](CN2CCCC2)NC(=O)[C@@H]2CCN(c3ccc(Cl)cc3)C2)cc1Cl [Compound 147, (R)-N-((1R,2R)-1-(3-chloro-4-(vinyloxy)phenyl)-1-hydroxy-3-(pyrrolidin-1-yl)propan-2-yl)-1-(4-chlorophenyl)pyrrolidine-3-carboxamide]",0.001 to 0.03 µM
7,"Cn1ncc2ccc(N3CCC(C(=O)N[C@H](CN4CCCC4)[C@H](O)c4ccc5c(c4)OCCO5)C3)cc21 (stereo partly drawn) [Compound 61C, N-((1R,2R)-1-(2,3-dihydrobenzo[b][1,4]dioxin-6-yl)-1-hydroxy-3-(pyrrolidin-1-yl)propan-2-yl)-1-(1-methyl-1H-indazol-6-yl)pyrrolidine-3-carboxamide]",0.001 to 0.03 µM
8,"O=C(N[C@H](CN1CCCC1)[C@H](O)c1ccc(OC2CC2)c(Cl)c1)[C@@H]1CCN(c2ccc(F)cc2)C1 [Compound 96, (R)-N-((1R,2R)-1-(3-chloro-4-cyclopropoxyphenyl)-1-hydroxy-3-(pyrrolidin-1-yl)propan-2-yl)-1-(4-fluorophenyl)pyrrolidine-3-carboxamide]",0.001 to 0.03 µM
9,"CC(C)Oc1ccc([C@@H](O)[C@@H](CN2CCCC2)NC(=O)[C@@H]2CCN(c3ccc(Cl)cc3)C2)cc1Cl [Compound 23, (R)-N-((1R,2R)-1-(3-chloro-4-isopropoxyphenyl)-1-hydroxy-3-(pyrrolidin-1-yl)propan-2-yl)-1-(4-chlorophenyl)pyrrolidine-3-carboxamide]",0.001 to 0.03 µM

# Same assay, conditions: Table 2; class symbols D, E, F, NA (not active); the table does not say which of the assays
row,SMILES,Data Range (% inhibition)
1,"O=C(N[C@H](CN1CCCCC1)[C@H](O)c1ccc2c(c1)OCCO2)[C@H]1CCN(c2ccc(Cl)cc2)C1 [Compound 43E, (S)-1-(4-chlorophenyl)-N-((1R,2R)-1-(2,3-dihydrobenzo[b][1,4]dioxin-6-yl)-1-hydroxy-3-(piperidin-1-yl)propan-2-yl)pyrrolidine-3-carboxamide]",F (1-49% (or less than 50%))
2,"O=C(N[C@H](CN1CCC1)[C@H](O)c1cc(F)c2c(c1)OCCO2)[C@H]1CCN(c2ccc(Cl)cc2)C1 [Compound 25B, (S)-N-((1R,2R)-3-(azetidin-1-yl)-1-(8-fluoro-2,3-dihydrobenzo[b][1,4]dioxin-6-yl)-1-hydroxypropan-2-yl)-1-(4-chlorophenyl)pyrrolidine-3-carboxamide]",F (1-49% (or less than 50%))
3,"O=C(N[C@H](CN1CCCC1)[C@H](O)c1ccc2c(c1)OCCO2)[C@@H]1CCN(c2nc3c(s2)CCCC3)C1 [Compound 36, (R)-N-((1R,2R)-1-(2,3-dihydrobenzo[b][1,4]dioxin-6-yl)-1-hydroxy-3-(pyrrolidin-1-yl)propan-2-yl)-1-(4,5,6,7-tetrahydrobenzo[d]thiazol-2-yl)pyrrolidine-3-carboxamide]",F (1-49% (or less than 50%))
4,"O=C(N[C@H](CN1CCCC1)[C@H](O)c1ccc2c(c1)OCCO2)[C@@H]1CCN(CC2(O)CCOCC2)C1 [Compound 5, (R)-N-((1R,2R)-1-(2,3-dihydrobenzo[b][1,4]dioxin-6-yl)-1-hydroxy-3-(pyrrolidin-1-yl)propan-2-yl)-1-((4-hydroxytetrahydro-2H-pyran-4-yl)methyl)pyrrolidine-3-carboxamide]",F (1-49% (or less than 50%))
5,"O=C(N[C@H](CN1CCCC1)[C@H](O)c1ccc2c(c1)OCCO2)C1CCN(CCc2ccc(Cl)cc2)C1 (stereo partly drawn) [Compound 21E, 1-(4-chlorophenethyl)-N-((1R,2R)-1-(2,3-dihydrobenzo[b][1,4]dioxin-6-yl)-1-hydroxy-3-(pyrrolidin-1-yl)propan-2-yl)pyrrolidine-3-carboxamide]",F (1-49% (or less than 50%))
6,"CC1(C)CCc2cc(N3CCC(C(=O)N[C@H](CN4CCCC4)[C@H](O)c4ccc5c(c4)OCCO5)C3)ccc2O1 (stereo partly drawn) [Compound 64, N-((1R,2R)-1-(2,3-dihydrobenzo[b][1,4]dioxin-6-yl)-1-hydroxy-3-(pyrrolidin-1-yl)propan-2-yl)-1-(2,2-dimethylchroman-6-yl)pyrrolidine-3-carboxamide]",F (1-49% (or less than 50%))
7,"O=C(N[C@H](CN1CCCC1)[C@H](O)c1ccc2c(c1)OCCO2)[C@@H]1CCN(C2Cc3ccccc3C2)C1 [Compound 55, (R)-1-(2,3-dihydro-1H-inden-2-yl)-N-((1R,2R)-1-(2,3-dihydrobenzo[b][1,4]dioxin-6-yl)-1-hydroxy-3-(pyrrolidin-1-yl)propan-2-yl)pyrrolidine-3-carboxamide]",F (1-49% (or less than 50%))
8,"O=C(N[C@H](CN1CCCC1)[C@H](O)c1ccc2c(c1)OCCO2)[C@@H]1CCN(c2ccc(Cl)cn2)C1 [Compound 28, (R)-1-(5-chloropyridin-2-yl)-N((1R,2R)-1-(2,3-dihydrobenzo[b][1,4]dioxin-6-yl)-1-hydroxy-3-(pyrrolidin-1-yl)propan-2-yl)pyrrolidine-3-carboxamide]",E (50-74% (or less than 75%))
9,"O=C(N[C@H](CN1CCCC1)[C@H](O)c1ccc2c(c1)OCCO2)C1CCN(CC2(O)CCOCC2)C1 (stereo partly drawn) [Compound 5D, N-((1R,2R)-1-(2,3-dihydrobenzo[b][1,4]dioxin-6-yl)-1-hydroxy-3-(pyrrolidin-1-yl)propan-2-yl)-1-((4-hydroxytetrahydro-2H-pyran-4-yl)methyl)pyrrolidine-3-carboxamide]",F (1-49% (or less than 50%))
10,"O=C(N[C@H](CN1CCCC1)[C@H](O)c1ccc(OCC(F)(F)F)nc1)[C@@H]1CCN(c2ccc(F)cc2)C1 [Compound 34, (R)-1-(4-fluorophenyl)-N-((1R,2R)-1-hydroxy-3-(pyrrolidin-1-yl)-1-(6-(2,2,2-trifluoroethoxy)pyridin-3-yl)propan-2-yl)pyrrolidine-3-carboxamide]",E (50-74% (or less than 75%))
11,"O=C(N[C@H](CN1CCCC1)[C@H](O)c1ccc2c(c1)OCCO2)[C@@H]1CCN(CCc2ccc(Cl)cc2)C1 [Compound 21, (R)-1-(4-chlorophenethyl)-N-((1R,2R)-1-(2,3-dihydrobenzo[b][1,4]dioxin-6-yl)-1-hydroxy-3-(pyrrolidin-1-yl)propan-2-yl)pyrrolidine-3-carboxamide]",F (1-49% (or less than 50%))
12,"O=C(N[C@H](CN1CCCC1)[C@H](O)c1ccc(OC2CC2)c(Cl)c1)[C@H]1CCN(c2cccc(Oc3ccccn3)c2)C1 [Compound 75E, (S)-N-((1R,2R)-1-(3-chloro-4-cyclopropoxyphenyl)-1-hydroxy-3-(pyrrolidin-1-yl)propan-2-yl)-1-(3-(pyridin-2-yloxy)phenyl)pyrrolidine-3-carboxamide]",D (75-100%)
13,"O=C(N[C@H](CN1CCCC1)[C@H](O)c1ccc2c(c1)OCCO2)[C@@H]1CCN(c2ccc3c(c2)CCCC3)C1 [Compound 80, (R)-N-((1R,2R)-1-(2,3-dihydrobenzo[b][1,4]dioxin-6-yl)-1-hydroxy-3-(pyrrolidin-1-yl)propan-2-yl)-1-(5,6,7,8-tetrahydronaphthalen-2-yl)pyrrolidine-3-carboxamide]",E (50-74% (or less than 75%))
14,"O=C(N[C@H](CN1CCCC1)[C@H](O)c1ccc(N2CCOCC2)c(Cl)c1)[C@@H]1CCN(c2ccc(Cl)cc2)C1 [Compound 74, (R)-N-((1R,2R)-1-(3-chloro-4-morpholinophenyl)-1-hydroxy-3-(pyrrolidin-1-yl)propan-2-yl)-1-(4-chlorophenyl)pyrrolidine-3-carboxamide]",D (75-100%)
